# In patent publication US11117900B2 (Vertex Pharmaceuticals Incorporated, priority 2012, dated 2021):
# System: HCT116 colorectal cancer cells
# Experiment: Cisplatin sensitization assay (96 h MTS cell viability);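 note: compound concentration needed to lower the IC50 of Cisplatin alone by a set fold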
# Type: cell-based
# Details: Cisplatin sensitization value
# Method in brief: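 HCT116 cells were dosed simultaneously with compound and cisplatin as a full matrix of 2-fold serial dilutions from 10 μM top final concentration. Incubation was 96 h at 37° C., 5% CO2, followed by 1 h with MTS reagent for the viability read-out. Sensitization values were binned into +++, ++ and + categories.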
row,SMILES,Cisplatin Sensitization Assay
1,"N#CCc1cnc2c(C(=O)Nc3cnccc3N3CCNCC3)c(N)nn2c1 [I-N-89, 2-amino-6-(cyanomethyl)-N-(4-(piperazin-1-yl)pyridin-3-yl)pyrazolo[1,5-a]pyrimidine-3-carboxamide]",++ (Compounds with a Cisplatin sensitization value >0.02 μM but <0.2 μM are marked with “++.”)
2,"N#CCc1cnc2c(C(=O)Nc3cnccc3N3CCC(O)CC3)c(N)nn2c1 [I-N-83, 2-amino-6-(cyanomethyl)-N-(4-(4-hydroxypiperidin-1-yl)pyridin-3-yl)pyrazolo[1,5-a]pyrimidine-3-carboxamide]",++ (Compounds with a Cisplatin sensitization value >0.02 μM but <0.2 μM are marked with “++.”)
3,Nc1nn2cc(F)cnc2c1C(=O)Nc1cncc(F)c1N1CCN(S(=O)(=O)C2COC2)CC1 [I-N-201],+++ (Compounds with a Cisplatin sensitization value of <0.02 μM are marked with “+++.”)
4,"CCOc1ccncc1NC(=O)c1c(N)nn2cc(CC#N)cnc12 [I-O-28, 2-amino-6-(cyanomethyl)-N-(4-ethoxypyridin-3-yl)pyrazolo[1,5-a]pyrimidine-3-carboxamide]",+++ (Compounds with a Cisplatin sensitization value of <0.02 μM are marked with “+++.”)
5,"Nc1nn2cc(F)cnc2c1C(=O)Nc1cnccc1-n1ccnc1C(F)(F)F [I-N-219, 2-amino-6-fluoro-N-(4-(2-(trifluoromethyl)-1H-imidazol-1-yl)pyridin-3-yl)pyrazolo[1,5-a]pyrimidine-3-carboxamide]",+++ (Compounds with a Cisplatin sensitization value of <0.02 μM are marked with “+++.”)
6,"CN(C)C1CN(C2CCN(c3ccncc3NC(=O)c3c(N)nn4cc(Cl)cnc34)CC2)C1 [I-N-94, 2-amino-6-chloro-N-(4-(4-(3-(dimethylamino)azetidin-1-yl)piperidin-1-yl)pyridin-3-yl)pyrazolo[1,5-a]pyrimidine-3-carboxamide]",+++ (Compounds with a Cisplatin sensitization value of <0.02 μM are marked with “+++.”)
7,"CN(C)CCCOc1ccncc1NC(=O)c1c(N)nn2cc(Cl)cnc12 [I-O-52, 2-amino-6-chloro-N-(4-(3-(dimethylamino)propoxy)pyridin-3-yl)pyrazolo[1,5-a]pyrimidine-3-carboxamide]",+ (Compounds with a Cisplatin sensitization value >0.2 μM but <5 μM are marked with “+.”)
8,"CN1CCN(c2c(NC(=O)c3c(N)nn4cc(F)cnc34)cncc2C(F)F)CC1 [I-N-111, 2-amino-N-(5-(difluoromethyl)-4-(4-methylpiperazin-1-yl)pyridin-3-yl)-6-fluoropyrazolo[1,5-a]pyrimidine-3-carboxamide]",++ (Compounds with a Cisplatin sensitization value >0.02 μM but <0.2 μM are marked with “++.”)
9,"CN(C)CCCNC(=O)C1CCN(c2c(F)cncc2NC(=O)c2c(N)nn3cc(F)cnc23)CC1 [I-G-26, 2-amino-N-(4-(4-((3-(dimethylamino)propyl)carbamoyl)piperidin-1-yl)-5-fluoropyridin-3-yl)-6-fluoropyrazolo[1,5-a]pyrimidine-3-carboxamide]",++ (Compounds with a Cisplatin sensitization value >0.02 μM but <0.2 μM are marked with “++.”)
10,"CS(=O)(=O)C1CCCN(c2ccncc2NC(=O)c2c(N)nn3cc(F)cnc23)C1 (centres unmarked) [I-N-221, 2-amino-6-fluoro-N-(4-(3-(methylsulfonyl)piperidin-1-yl)pyridin-3-yl)pyrazolo[1,5-a]pyrimidine-3-carboxamide]",++ (Compounds with a Cisplatin sensitization value >0.02 μM but <0.2 μM are marked with “++.”)
11,"Nc1nn2cc(F)cnc2c1C(=O)Nc1cnccc1OC1CCOC1 (racemic) [I-O-15, (R,S)-2-amino-6-fluoro-N-(4-((tetrahydrofuran-3-yl)oxy)pyridin-3-yl)pyrazolo[1,5-a]pyrimidine-3-carboxamide]",+++ (Compounds with a Cisplatin sensitization value of <0.02 μM are marked with “+++.”)
